Marks after values point to notes of the source that are not given here.
Experiments:
[1] = test system: postmenopausal women with osteoporosis; experiment: ACTIVE trial: BMD by DXA; assay type: in vivo, human; conditions: for Mean percent change in BMD from baseline (ANCOVA), Femoral Neck / Mean percent change in BMD from baseline (ANCOVA), Lumbar Spine / Mean percent change in BMD from baseline (ANCOVA), Total Hip / Mean percent change in BMD from baseline (MMRM), Femoral Neck / Mean percent change in BMD from baseline (MMRM), Lumbar Spine / Mean percent change in BMD from baseline (MMRM), Total Hip: abaloparatide 80 μg or teriparatide 20 μg daily
Protocol: BMD and bone turnover biomarkers (CTX and P1NP) were also evaluated in all patient groups to compare the effects of abaloparatide versus teriparatide.
(§1) As set forth in the ACTIVE protocol, the primary efficacy endpoint was the number of patients treated with abaloparatide with incident vertebral fractures at the end of treatment as compared to those who received placebo. The pre-specified secondary efficacy parameters included, among other endpoints, reduction in the incidence/risk of non-vertebral fractures; changes in BMD of the spine, hip, and femoral neck from baseline to end of treatment as assessed by DXA and as compared to teriparatide; and the number of hypercalcemic events in abaloparatide treated patients when compared to teriparatide at end of treatment.
Comparative analyses of abaloparatide versus teriparatide were completed on the following BMD secondary endpoints using a Mixed-Effect Model for Repeated Measures (MMRM) method, shown in Table 4 below:
Comparative analyses of the PTHrP analogues abaloparatide and teriparatide were completed on the following BMD secondary endpoints using an ANCOVA approach, shown in Table 5 below: […]

[2] = test system: postmenopausal women with osteoporosis; experiment: Phase 2 24-week trial: serum biochemical markers of bone turnover; assay type: in vivo, human; conditions: 24 weeks; 20 μg daily SC
Protocol: Biochemical Markers of bone turnover: Fasting morning blood samples (collected 24 hours after last injection if taking teriparatide) were obtained at each visit. Serum osteocalcin (OC) was measured via electrochemiluminescence assay (Roche Diagnostics, Basel, Switzerland), with […] coefficients of variation (CVs) of 1.8% and 4.8% respectively. Serum amino-terminal propeptide of type 1 procollagen (P1NP) was measured via radioimmunoassay (Orion Diagnostica, Espoo, Finland) with inter- and intra-assay CVs of 4.5% and 5.5% respectively. Serum β-c-terminal telopeptide of type one collagen (CTX) was measured via electrochemiluminescence assay (Roche Diagnostics, Basel, Switzerland) with inter- and intraassay CVs of 3.8% and 6.9% respectively.

[3] = test system: postmenopausal osteoporotic women; experiment: Trabecular bone score (TBS) from spinal DXA, phase 2 trial; assay type: in vivo, human; conditions: 20 μg daily SC
Text: To assess the effects of the PTHrP analogue abaloparatide on trabecular microarchitecture as indirectly assessed by TBS, the TBS (TBS Calculator v2.2, Medimaps group, Plan-les-Ouates, Geneva, Switzerland) in a blinded fashion at 0, 12, and 24-weeks in 222 postmenopausal osteoporotic women (age 55-85) who were randomized to receive 24-weeks of daily subcutaneous injections of placebo, abaloparatide 20-μg, abaloparatide 40-μg. abaloparatide 80-μg, or teriparatide (TPTD) 20-μg was retrospectively calculated. Between groups differences in the mean percent TBS changes were assessed by unpaired t-test.

[4] = test system: postmenopausal women with osteoporosis; experiment: Phase 2 trial: safety, serum calcium, antibody formation; conditions: 20 μg daily SC
Protocol: All subjects received supplemental calcium (500-1000 mg) and vitamin D (400-800 IU) per local practice. […] Blood calcium levels were assessed 4-hours and 24-hours after drug administration. Subjects were monitored for adverse events (AEs) and local tolerance at the injection site at each visit. Clinical and laboratory safety parameters, electrocardiograms, were also measured at each study visit.
Efficacy and safety were assessed using all randomized patients who received at least one dose of study drug. Baseline characteristics and safety parameters were summarized using descriptive statistics. […] All hypotheses were tested at the 2-sided 5% significance level.

[5] = test system: postmenopausal women with osteoporosis; experiment: ACTIVE phase 3 trial: fracture rates and fracture risk reduction, 18 months; assay type: in vivo, human; conditions: abaloparatide 80 μg or teriparatide 20 μg daily SC
Protocol: The ACTIVE phase 3 fracture prevention trial was conducted for abaloparatide in postmenopausal women with osteoporosis who were otherwise healthy. The enrolled subjects were treated with 80 micrograms (μg) of abaloparatide, a matching placebo, or the approved daily dose of 20 μg of teriparatide for 18 months. The ACTIVE trial evaluated fracture rates, fracture risks, BMD, and bone turnover biomarkers (e.g., CTX and P1NP) in all patient groups.
Fracture risk reduction and hazard ratio (HR) were derived from Kaplan-Meier (KM) curve.
The ACTIVE pivotal Phase 3 fracture prevention trial for the PTHrP analogue abaloparatide, Study BA058-05-003 (see ClinicalTrials.gov), was a randomized, double-blind, placebo-controlled trial in postmenopausal osteoporotic women randomized to receive daily doses of one of the following for 18 months: 80 micrograms (μg) of abaloparatide; a matching placebo; or the approved daily dose of 20 μg of teriparatide. Treatment with abaloparatide at a daily dose of 80 μg or placebo remained blinded to all parties throughout the study. Teriparatide used was a proprietary prefilled drug and device combination that could not be repackaged. Therefore, its identity could not be blinded to treating physicians and patients once use began. Study medication was self-administered daily by subcutaneous injection for a maximum of 18 months. All enrolled patients also received calcium and vitamin D supplementation from the time of enrollment until the end of the treatment period. It was recommended to patients that they also continue these supplements through the one-month follow-up period.
The trial completed enrollment in March 2013 with 2,463 patients at 28 medical centers in 10 countries in the United States, Europe, Latin America, and Asia. The baseline characteristics of the selected patients are detailed in Table 3 below.
The study enrolled otherwise healthy ambulatory women aged 49 to 86 (inclusive) who had been postmenopausal for at least five years, met the study entry criteria, and had provided written informed consent. […] All patients were to be in good general health as determined by medical history, physical examination (including vital signs), and clinical laboratory testing. This study population contained a patient population reflective of the type of severe osteoporosis patients that specialists would be expected to treat in their practices.
as §1

CC[C@H](C)[C@H](NC(=O)[C@H](CCC(=O)O)NC(=O)[C@H](CO)NC(=O)[C@@H](NC(=O)[C@@H](N)CO)C(C)C)C(=O)N[C@@H](CCC(N)=O)C(=O)N[C@@H](CC(C)C)C(=O)N[C@@H](CCSC)C(=O)N[C@@H](Cc1cnc[nH]1)C(=O)N[C@@H](CC(N)=O)C(=O)N[C@@H](CC(C)C)C(=O)NCC(=O)N[C@@H](CCCCN)C(=O)N[C@@H](Cc1cnc[nH]1)C(=O)N[C@@H](CC(C)C)C(=O)N[C@@H](CC(N)=O)C(=O)N[C@@H](CO)C(=O)N[C@@H](CCSC)C(=O)N[C@@H](CCC(=O)O)C(=O)N[C@@H](CCCN=C(N)N)C(=O)N[C@H](C(=O)N[C@@H](CCC(=O)O)C(=O)N[C@@H](Cc1c[nH]c2ccccc12)C(=O)N[C@@H](CC(C)C)C(=O)N[C@@H](CCCN=C(N)N)C(=O)N[C@@H](CCCCN)C(=O)N[C@@H](CCCCN)C(=O)N[C@@H](CC(C)C)C(=O)N[C@@H](CCC(N)=O)C(=O)N[C@@H](CC(=O)O)C(=O)N[C@H](C(=O)N[C@@H](Cc1cnc[nH]1)C(=O)N[C@@H](CC(N)=O)C(=O)N[C@@H](Cc1ccccc1)C(=O)O)C(C)C)C(C)C [teriparatide, hPTH(1-34)]
Mean percent change in BMD from baseline (ANCOVA), Femoral Neck ([1]; 6 mo): 0.80%*
Mean percent change in BMD from baseline (ANCOVA), Lumbar Spine ([1]; 6 mo): 4.84%*
Mean percent change in BMD from baseline (ANCOVA), Total Hip ([1]; 6 mo): 1.33%*
Mean percent change in BMD from baseline (MMRM), Femoral Neck ([1]; 6 mo): 0.87%*
Mean percent change in BMD from baseline (MMRM), Lumbar Spine ([1]; 6 mo): 5.25%*
Mean percent change in BMD from baseline (MMRM), Total Hip ([1]; 6 mo): 1.44%*
Mean percent change in BMD from baseline (ANCOVA), Femoral Neck ([1]; 12 mo): 1.41%*
Mean percent change in BMD from baseline (ANCOVA), Lumbar Spine ([1]; 12 mo): 7.40%*
Mean percent change in BMD from baseline (ANCOVA), Total Hip ([1]; 12 mo): 2.03%*
Mean percent change in BMD from baseline (MMRM), Femoral Neck ([1]; 12 mo): 1.54%*
Mean percent change in BMD from baseline (MMRM), Lumbar Spine ([1]; 12 mo): 8.28%*
Mean percent change in BMD from baseline (MMRM), Total Hip ([1]; 12 mo): 2.29%*
Subjects with increased BMD of >3% at all three sites (lumbar spine, total hip, femoral neck) ([1]; 12 months): 19.8%
Mean percent change in BMD from baseline (ANCOVA), Femoral Neck ([1]; 18 mo): 2.26%*
Mean percent change in BMD from baseline (ANCOVA), Lumbar Spine ([1]; 18 mo): 9.12%*
Mean percent change in BMD from baseline (ANCOVA), Total Hip ([1]; 18 mo): 2.81%*
Mean percent change in BMD from baseline (MMRM), Femoral Neck ([1]; 18 mo): 2.66%*
Mean percent change in BMD from baseline (MMRM), Lumbar Spine ([1]; 18 mo): 10.49%*
Mean percent change in BMD from baseline (MMRM), Total Hip ([1]; 18 mo): 3.26%*
Subjects with increased BMD of >3% at all three sites (lumbar spine, total hip, femoral neck) ([1]; 18 months): 32.0%
Subjects with increased BMD of >3% at all three sites (lumbar spine, total hip, femoral neck) ([1]; month 6): 6.5%
CTX increase, median (interquartile range) [2]: 76 (13, 130) %
P1NP increase, median (interquartile range) [2]: 98 (21, 184) %
TBS mean percent change ([3]; 12 weeks): +1.5%
TBS mean percent change ([3]; 24 weeks): +2.6%
Highest serum calcium value obtained by any subject ([4]; 4-hours post-dose): 12.6 mg/dL
Patients with serum calcium levels ≧10.5 mg/dL ([4]; 4-hours post-dose): 40%
Patients with serum calcium levels ≧10.5 mg/dL ([4]; 24-hours after the last injection): 16%
Highest serum calcium value obtained by any patient ([4]; 24-hours post-dose): 11.2 mg/dL
Dizziness ([4]; 24 weeks): 4%
Incidence of headache ([4]; 24 weeks): 13%
Patients discontinued due to AEs ([4]; 24 weeks): 4%
Proportion of patients that experienced TEAEs ([4]; 24 weeks): 78%
TEAEs possibly or probably related to study treatment ([4]; 24 weeks): 29%
Treatment-related TEAEs ([4]; extension to 48 weeks): 21%
Fracture Rate, incident clinical fractures [5]: 4.3%
Fracture Rate, incident non-vertebral fractures [5]: 2.9%
Fracture Rate, major osteoporotic fractures [5]: 2.8%
Fracture Rate, wrist [5]: 2.1%
Fracture Risk Reduction v. PBO, incident clinical fractures [5]: 29%
Fracture Risk Reduction v. PBO, incident non-vertebral fractures [5]: 28%
Fracture Risk Reduction v. PBO, major osteoporotic fractures [5]: 33%
Fracture Risk Reduction v. PBO, wrist [5]: −13%
Fracture rate, new vertebral fractures (excluding worsening) [5]: 0.84%
Reduction of new vertebral fractures (excluding worsening) as compared to placebo [5]: 80%
Fracture Risk Reduction v. PBO, incident clinical fractures ([5]; listed as TPTD): 29%
Fracture Risk Reduction v. PBO, incident non-vertebral fractures ([5]; listed as TPTD): 28%
Fracture Risk Reduction v. PBO, major osteoporotic fractures ([5]; listed as TPTD): 33%
Fracture Risk Reduction v. PBO, incident non-vertebral fractures ([5]; listed as Teriparatide): 28%

Source: patent US20170368148A1, “USES OF A PTHrP ANALOGUE IN REDUCING FRACTURE RISK” (RADIUS HEALTH, INC., priority 2015, published 2017)
